System: viable bacteria
Test: Contact of slime inhibitor with water containing viable bacteria
Format: cell-based
Source text: The slime inhibitor was brought into contact with water containing viable bacteria, and the number of viable bacteria before the contact with the slime inhibitor and the number of viable bacteria after contact with the slime inhibitor for one hour were examined.

OCl [Sodium hypochlorite, sodium hypochlorite]
Number of viable bacteria before contact with slime inhibitor (baseline before contact): 10^6 | Number of viable bacteria after contact with slime inhibitor for one hour (slime inhibitor 0.1 mg/L as Cl2, contact one hour): 10^5
